Laboratory results: patent US10968222B2, “2-azabicyclo hexane JAK inhibitor compound” (THERAVANCE BIOPHARMA R&D IP, LLC, priority 2018, dated 2021)

What was measured:
JAK2 = target: T1, JAK2 (Homo sapiens, UniProt O60674); assay: Biochemical JAK kinase assay (LanthaScreen), JAK2; settings: converted from pIC50 by Cheng-Prusoff; 3 μM ATP; read-out: JAK 2 pKi (converted)
T1 construct: GST; purchased Life Technologies
Protocol: A panel of four LanthaScreen JAK biochemical assays (JAK1, 2, 3 and Tyk2) were carried in a common kinase reaction buffer (50 mM HEPES, pH 7.5, 0.01% Brij-35, 10 mM MgCl2, and 1 mM EGTA). Recombinant GST-tagged JAK enzymes and a GFP-tagged STAT1 peptide substrate were obtained from Life Technologies.
Serially diluted compound was pre-incubated with each of the four JAK enzymes and the substrate in white 384-well microplates (Corning) at ambient temperature for 1 h. ATP was subsequently added to initiate the kinase reactions in 10 μL total volume, with 1% DMSO. […] The plates were allowed to incubate at ambient temperature for 1 h before being read on the EnVision reader (Perkin Elmer). Emission ratio signals (520 nm/495 nm) were recorded and utilized to calculate the percent inhibition values based on DMSO and background controls.
For dose-response analysis, percent inhibition data were plotted vs. compound concentrations, and IC50 values were determined from a 4-parameter robust fit model with the Prism software (GraphPad Software). Results were expressed as pIC50 (negative logarithm of IC50) and subsequently converted to pKi (negative logarithm of dissociation constant, Ki) using the Cheng-Prusoff equation.

[1] = tested on: IL-13 induced STAT6 phosphorylation in BEAS-2B human lung epithelial cells; assay: Inhibition of IL-13 stimulated pSTAT6 in BEAS-2B cells; assay type: cell-based; settings: AlphaScreen, read-out: pIC50, inhibition of IL-13 stimulated pSTAT6 (converted)
Protocol: The AlphaScreen JAKI cellular potency assay was carried out by measuring interleukin-13 (IL-13, R&D Systems) induced STAT6 phosphorylation in BEAS-2B human lung epithelial cells (ATCC). The anti-STAT6 antibody (Cell Signaling Technologies) was conjugated to AlphaScreen acceptor beads (Perkin Elmer), while the anti-pSTAT6 (pTyr641) antibody (Cell Signaling Technologies) was biotinylated using EZ-Link Sulfo-NHS-Biotin (Thermo Scientific).
BEAS-2B cells were grown at 37° C. in a 5% CO2 humidified incubator in 50% DMEM/50% F-12 medium (Life Technologies) supplemented with 10% FBS (Hyclone), 100 U/mL penicillin, 100 μg/mL streptomycin (Life Technologies), and 2 mM GlutaMAX (Life Technologies). On day 1 of the assay, cells were seeded at a 7,500 cells/well density in white poly-D-lysine-coated 384-well plates (Corning) with 25 μL medium, and were allowed to adhere overnight in the incubator. […] After a minimum of 2 h incubation, the assay plates were read on the EnVision plate reader. AlphaScreen luminescence signals were recorded and utilized to calculate the percent inhibition values based on DMSO and background controls.
For dose-response analysis, percent inhibition data were plotted vs. compound concentrations, and IC50 values were determined from a 4-parameter robust fit model with the Prism software. Results may also be expressed as the negative logarithm of the IC50 value, pIC50.

ALK = target: T2, ALK (Homo sapiens, UniProt Q9UM73); assay: Kinome screen, ALK; assay type: binding; settings: screened at 1 μM
T2 construct: made in house; host or cells: E. coli BL21-derived host (T7 phage) or HEK-293 cells
Protocol: (§1) Compounds 1 and C-1 were screened against other kinases to evaluate their selectivity profile.
(§2) Kinase-tagged T7 phage strains were grown in parallel in 24-well blocks in an E. coli host derived from the BL21 strain. E. coli were grown to log-phase and infected with T7 phage from a frozen stock (multiplicity of infection=0.4) and incubated with shaking at 32° C. until lysis (90-150 minutes). The lysates were centrifuged (6,000×g) and filtered (0.2 μm) to remove cell debris. The remaining kinases were produced in HEK-293 cells and subsequently tagged with DNA for qPCR detection.
(§3) Streptavidin-coated magnetic beads were treated with biotinylated small molecule ligands for 30 minutes at room temperature to generate affinity resins for kinase assays. The liganded beads were blocked with excess biotin and washed with blocking buffer (SeaBlock (Pierce), 1% BSA, 0.05% Tween 20, 1 mM DTT) to remove unbound ligand and to reduce non-specific phage binding. Binding reactions were assembled by combining kinases, liganded affinity beads, and test compounds in 1× binding buffer (20% SeaBlock, 0.17×PBS, 0.05% Tween 20, 6 mM DTT). Test compounds were prepared as 40× stocks in 100% DMSO and directly diluted into the assay. All reactions were performed in polypropylene 384-well plates in a final volume of 0.04 ml. […] The kinase concentration in the eluates was measured by qPCR. […]

PKAC-ALPHA = target: T3, PKAC-ALPHA (Homo sapiens, UniProt P17612); assay: Kinome screen, PKAC-ALPHA; assay type: binding; settings: screened at 1 μM
T3 construct: made in house; host or cells: E. coli BL21-derived host (T7 phage) or HEK-293 cells
Protocol: as §1, §2, §3

T2 sequence (Q9UM73 19-1620): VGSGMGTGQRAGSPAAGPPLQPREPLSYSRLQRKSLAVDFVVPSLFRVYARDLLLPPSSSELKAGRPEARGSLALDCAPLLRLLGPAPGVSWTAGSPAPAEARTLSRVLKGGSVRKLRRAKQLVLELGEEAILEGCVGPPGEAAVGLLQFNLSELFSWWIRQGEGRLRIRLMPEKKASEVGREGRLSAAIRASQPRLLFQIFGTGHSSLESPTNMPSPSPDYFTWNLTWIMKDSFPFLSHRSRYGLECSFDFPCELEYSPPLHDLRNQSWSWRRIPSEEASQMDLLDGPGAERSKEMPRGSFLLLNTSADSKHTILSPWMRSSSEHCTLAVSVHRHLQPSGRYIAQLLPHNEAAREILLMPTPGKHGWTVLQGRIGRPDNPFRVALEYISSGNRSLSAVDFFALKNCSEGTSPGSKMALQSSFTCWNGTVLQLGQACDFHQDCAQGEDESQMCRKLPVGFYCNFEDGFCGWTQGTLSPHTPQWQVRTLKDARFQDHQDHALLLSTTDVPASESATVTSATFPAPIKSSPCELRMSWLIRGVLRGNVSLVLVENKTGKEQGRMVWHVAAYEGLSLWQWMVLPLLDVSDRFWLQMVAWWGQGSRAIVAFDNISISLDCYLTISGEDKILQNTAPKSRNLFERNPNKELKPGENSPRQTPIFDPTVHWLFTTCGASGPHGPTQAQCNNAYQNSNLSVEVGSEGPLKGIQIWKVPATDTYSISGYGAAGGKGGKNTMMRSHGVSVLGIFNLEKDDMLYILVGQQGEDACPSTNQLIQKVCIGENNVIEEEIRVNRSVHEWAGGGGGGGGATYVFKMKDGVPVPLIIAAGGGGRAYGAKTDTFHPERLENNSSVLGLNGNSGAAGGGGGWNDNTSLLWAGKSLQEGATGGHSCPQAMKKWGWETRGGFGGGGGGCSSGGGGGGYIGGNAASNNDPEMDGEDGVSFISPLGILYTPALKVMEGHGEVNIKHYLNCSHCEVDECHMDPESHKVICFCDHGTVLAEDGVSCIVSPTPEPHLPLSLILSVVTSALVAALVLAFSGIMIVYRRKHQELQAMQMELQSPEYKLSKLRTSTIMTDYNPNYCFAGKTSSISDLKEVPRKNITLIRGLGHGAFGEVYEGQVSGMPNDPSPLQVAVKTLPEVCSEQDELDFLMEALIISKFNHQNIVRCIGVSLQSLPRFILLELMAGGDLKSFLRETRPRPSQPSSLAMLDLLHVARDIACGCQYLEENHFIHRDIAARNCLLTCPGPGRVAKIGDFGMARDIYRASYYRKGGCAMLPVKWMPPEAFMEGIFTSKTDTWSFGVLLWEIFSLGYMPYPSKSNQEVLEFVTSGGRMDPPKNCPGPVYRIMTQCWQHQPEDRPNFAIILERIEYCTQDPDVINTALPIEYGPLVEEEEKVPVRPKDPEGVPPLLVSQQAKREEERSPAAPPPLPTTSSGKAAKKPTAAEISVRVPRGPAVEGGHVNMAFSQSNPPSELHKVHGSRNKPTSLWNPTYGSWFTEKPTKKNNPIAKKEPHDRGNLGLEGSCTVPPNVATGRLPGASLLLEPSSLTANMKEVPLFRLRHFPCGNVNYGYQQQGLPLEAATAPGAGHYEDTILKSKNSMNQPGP
T1 sequence (O60674 whole entry): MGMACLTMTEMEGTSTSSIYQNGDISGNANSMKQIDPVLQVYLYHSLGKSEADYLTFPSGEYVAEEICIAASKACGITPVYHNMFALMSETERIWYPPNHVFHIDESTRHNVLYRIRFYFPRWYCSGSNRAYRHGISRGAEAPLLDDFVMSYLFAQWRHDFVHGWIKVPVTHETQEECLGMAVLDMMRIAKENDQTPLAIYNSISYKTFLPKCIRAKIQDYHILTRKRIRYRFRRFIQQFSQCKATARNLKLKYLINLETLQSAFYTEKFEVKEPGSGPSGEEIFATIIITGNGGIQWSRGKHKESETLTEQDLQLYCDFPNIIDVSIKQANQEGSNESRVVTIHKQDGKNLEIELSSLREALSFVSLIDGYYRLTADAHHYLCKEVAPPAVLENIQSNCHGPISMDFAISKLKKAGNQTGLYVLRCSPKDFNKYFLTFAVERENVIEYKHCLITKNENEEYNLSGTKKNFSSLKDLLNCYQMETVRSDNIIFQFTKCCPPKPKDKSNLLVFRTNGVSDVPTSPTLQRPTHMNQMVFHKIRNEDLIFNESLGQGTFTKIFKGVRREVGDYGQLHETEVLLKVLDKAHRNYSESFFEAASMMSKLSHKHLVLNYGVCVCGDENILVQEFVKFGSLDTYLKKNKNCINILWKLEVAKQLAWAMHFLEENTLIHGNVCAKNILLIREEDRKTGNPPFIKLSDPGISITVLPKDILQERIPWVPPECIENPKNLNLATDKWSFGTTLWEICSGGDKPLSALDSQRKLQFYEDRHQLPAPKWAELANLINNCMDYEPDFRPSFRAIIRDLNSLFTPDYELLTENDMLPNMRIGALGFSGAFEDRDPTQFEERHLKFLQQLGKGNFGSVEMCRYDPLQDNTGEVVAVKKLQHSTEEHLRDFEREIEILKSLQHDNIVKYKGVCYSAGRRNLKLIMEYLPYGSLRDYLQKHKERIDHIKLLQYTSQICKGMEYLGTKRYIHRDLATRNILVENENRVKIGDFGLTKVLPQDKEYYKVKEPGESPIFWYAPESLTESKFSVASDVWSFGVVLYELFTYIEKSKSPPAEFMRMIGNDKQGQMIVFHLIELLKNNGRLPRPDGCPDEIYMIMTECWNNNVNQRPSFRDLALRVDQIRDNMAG

**Q.** For `CCc1cc(O)c(F)cc1-c1cc(F)c2c(-c3nc4c([nH]3)CCN(C(=O)[C@]35C[C@H]3CCN5)C4)n[nH]c2c1` [Compound 1, (1S,5R)-2-azabicyclo[3.1.0]hexan-1-yl(2-(6-(2-ethyl-5-fluoro-4-hydroxyphenyl)-4-fluoro-1H-indazol-3-yl)-6,7-dihydro-3H-imidazo[4,5-c]pyridin-5(4H)-yl)methanone], which Ki (JAK2) is on record?
**A.** 0.0631 nM

**Q.** And the IC50 [1]?
**A.** 10 nM

**Q.** And the inhibition at 1 µM (ALK)?
**A.** 79%

**Q.** What about the inhibition at 1 µM (PKAC-ALPHA) of the same molecule?
**A.** 22%
